Structures are written as SMILES.

As usually defined, the melting point is the temperature of the solid-liquid transition.

Take `COc1ccccc1NC(=O)Nc1ccc(CC(=O)NC(CC(C)C)c2ncc(CCC(=O)O)s2)cc1` (stereo not shown) [Example 16, 3-{2-[1-(2-{4-[3-(2-Methoxy-phenyl)-ureido]-phenyl}-acetylamino)-3-methyl-butyl]-thiazol-5-yl}-propionic acid]: the melting point was 197 to 198 °C. Then `CC(C)CC(NC(=O)Cc1ccc(NC(=O)Nc2ccccc2Cl)cc1)c1cc(CCC(=O)O)on1` (stereo not shown) [Example 24, 3-{3-[1-(2-{4-[3-(2-Chloro-phenyl)-ureido]-phenyl}-acetylamino)-3-methyl-butyl]-isoxazol-5-yl}propionic acid], with 143 to 145 °C; and `CC(C)CC(NC(=O)Cc1ccc(NC(=O)Nc2c(Cl)cccc2Cl)cc1)c1ncc(CCC(=O)O)s1` (stereo not shown) [Example 19, 3-{2-[1-(2-{4-[3-(2,6-Dichloro-phenyl)-ureido]-phenyl}-acetylamino)-3-methyl-butyl]-thiazol-5-yl}-propionic acid], with 148 to 150 °C; and `CC(C)CC(NC(=O)Cc1ccc(NC(=O)Nc2ccccc2Cl)cc1)c1ncc(CCC(=O)O)s1` (stereo not shown) [Example 15, 3-{2-[1-(2-{4-[3-(2-Chloro-phenyl)-ureido]-phenyl}-acetylamino)-3-methyl-butyl]-thiazol-5-yl}-propionic acid], with 173 to 175 °C. `CCOC(=O)CC(=O)c1cc(C(CC(C)C)NC(=O)Cc2ccc(NC(=O)Nc3ccccc3Cl)cc2)no1` (stereo not shown) [Example 26, 3-{3-[1-(2-{4-[3-(2-Chloro-phenyl)-ureido]-phenyl}-acetylamino)-3-methyl-butyl]-isoxazol-5-yl}-3-oxo-propionic acid ethyl ester] displayed a melting point of 150 to 152 °C.

Consider `CC(C)CC(NC(=O)Cc1ccc(NC(=O)Nc2ccccn2)cc1)c1cc(CCC(=O)O)on1` (stereo not shown) [Example 10, [3-(3-Methyl-1-{2-[4-(3-pyridin-2-yl-ureido)-phenyl]-acetylamino}-butyl)-isoxazol-5-yl]-propionic acid], for which the melting point was 159 to 161 °C. For `Cc1cccc(Cl)c1NC(=O)Nc1ccc(CC(=O)NC(CC(C)C)c2ncc(CCC(=O)O)s2)cc1` (stereo not shown) [Example 21, 3-{2-[1-(2-{4-[3-(2-Chloro-6-methyl-phenyl)-ureido]-phenyl}-acetylamino)-3-methyl-butyl]-thiazol-5-yl}-propionic acid], the melting point fell in the range of 160 to 162 °C. Then `Cc1ccccc1NC(=O)Nc1ccc(CC(=O)NC2(c3cc(CCC(=O)O)on3)CCCC2)cc1` [Example 9, 3-[3-(1-{2-[4-(3-o-Tolyl-ureido)-phenyl]-acetylamino}-cyclopentyl)-isoxazol-5-yl]-propionic acid], with 195 to 197 °C; and `Cc1ccccc1NC(=O)Nc1ccc(CC(=O)N2CCN(CCC(=O)O)C(=O)C2Cc2ccccc2)cc1` (stereo not shown) [Example 4, (3-Benzyl-2-oxo-4-{[4-(3-o-tolyl-ureido)-phenyl]-acetyl}-piperazin-1-yl)-propionic acid], with 103 to 105 °C. As for `CC(C)CC(NC(=O)Cc1ccc(NC(=O)Nc2ccccc2F)cc1)c1ncc(CCC(=O)O)s1` (stereo not shown) [Example 17, 3-{2-[1-(2-{4-[3-(2-Fluoro-phenyl)-ureido]-phenyl}-acetylamino)-3-methyl-butyl]-thiazol-5-yl}-propionic acid], the figure is 83 to 85 °C; as for `Cc1ccccc1NC(=O)Nc1ccc(CC(=O)NC(CC(C)C)c2cc(/C=C/C(=O)O)on2)cc1` (stereo not shown) [Example 18, 3-[3-(3-Methyl-1-{2-[4-(3-o-tolyl-ureido)-phenyl]-acetylamino}-butyl)-isoxazol-5-yl]-acrylic acid], 136 to 138 °C; as for `CC(C)CC(NC(=O)Cc1ccc(NC(=O)Nc2ccccc2)cc1)c1ncc(CCC(=O)O)s1` (stereo not shown) [Example 22, 3-[2-(3-Methyl-1-{2-[4-(3-phenyl-ureido)-phenyl]-acetylamino}-butyl)-thiazol-5-yl]-propionic acid], 146 to 148 °C. As for `Cc1cccc(C)c1NC(=O)Nc1ccc(CC(=O)NC(CC(C)C)c2ncc(CCC(=O)O)s2)cc1` (stereo not shown) [Example 20, 3-{2-[1-(2-{4-[3-(2,6-Dimethyl-phenyl)-ureido]-phenyl}-acetylamino)-3-methyl-butyl]-thiazol-5-yl}-propionic acid], the melting point lay within 125 to 127 °C. Then `Cc1ccccc1NC(=O)Nc1ccc(CC(=O)NC(CC(C)C)C2=NOC(CCC(=O)O)(CCC(=O)O)C2)cc1` (stereo not shown) [Example 6, 3-[5-(2-Carboxy-ethyl)-3-(3-methyl-1-{2-[4-(3-o-tolyl-ureido)-phenyl]-acetylamino}-butyl)-4,5dihydro-isoxazol-5-yl]-propionic acid], with 173 to 175 °C; and `CC(C)CC(NC(=O)Cc1ccc(NC(=O)Nc2ccccn2)cc1)c1ncc(CCC(=O)O)s1` (stereo not shown) [Example 11, [2-(3-Methyl-1-{2-[4-(3-pyridin-2-yl-ureido)-phenyl]-acetylamino}-butyl)-thiazol-5-yl]-propionic acid], with 173 to 175 °C; and `Cc1ccccc1NC(=O)Nc1ccc(CC(=O)NC(CC(C)C)c2ncc(CCC(=O)O)o2)cc1` (stereo not shown) [Example 8, [2-(3-Methyl-1-{2-[4-(3-o-tolyl-ureido)-phenyl]-acetylamino}-butyl)oxazol-5-yl]-propionic acid], with 168 to 170 °C.
